From patent US8426677B2, “Method of controlling plant growth and architecture by controlling expression of gibberellin 2-oxidase” (Academia Sinica, priority 2008, dated 2013)

B1: GA2ox6: rice class C20 gibberellin 2-oxidase (SEQ ID NO:4), expressed in E. coli and partially purified (protein, listed as Oryza sativa)
chain: MPAFADIAIDPPLADSYRALALLRRDRDGGIAPPAVQMVGSGGAVLERDLPMVDLERLTRGGAGERKACAGAMARAASEWGFFQLTNHGVGRELMEEMRREQARLFRLPFETKEKAGLLNGSYRWGNPTATSLRHLSWSEAFHVPLASISGADCDFGDLTSLRGVMQEVAEAMSRVANTVAAALAEELTGRGGGGASAAPWFPAGCDETTCFLRLNRYPACPFAADTFGLVPHTDSDFLTVLCQDQVGGLHLMKDSRWVAVRPRPDALVVNIGDLFQAWSNNRYKSVEHKVVANAKTDRLSVAYFLCPSYDSLVGTCGEPSPYRAFTFGEYRKKVQEDVRTTGKKIGLPNFFKHSSVQ
B2: GA2ox5: rice class C20 gibberellin 2-oxidase (SEQ ID NO:2), expressed in E. coli and partially purified (protein, listed as Oryza sativa)
chain: MEEHDYDSNSNPPLMSTYKHLFVEQHRLDMDMGAIDVDECELPVIDLAGLMEAEQVCRADMVRAASEWGFFQVTNHGVPQALLRELHDAQVAVFRRPFQEKVTERLLGFSPESYRWGTPTAKCLEQLSWSEAYHIPMTTPRPSTSIRARAVIEEVSRAMYELAQKLAEILMRGLPGAGEGETMVTTREETCFLRLNRYPPCAMAMGGFGLCPHTDSDLLTIVHQQQDTVGGLQLLKGGRWVAVKPSPSTLIVNVGDLLQAWSNDVYKSVEHRVMANATLERFSMAFFLCPSYHTLIIPSSSHVHDDDAHYRSFTFGEYRKQIMEDVRSTGRKIGLHRFRTR

Key:
[1] = tested on: GA2ox6ACT mutant and wild type rice seeds/seedlings; assay: Germination and seedling growth of rice on MS agar medium with or without GA3; type: in vivo, Oryza sativa
Procedure: To determine whether the dwarfism of rice mutants overexpressing GA2ox was a result of a reduction of bio-active GAs, GA2ox6ACT mutant seeds were germinated on MS agar medium with or without supplementation with 5 μM GA3.
The rice cultivar Oryza sativa L. cv Tainung 67 was used as in this study. Four T-DNA tagged rice GA2ox mutant lines were obtained from the Taiwan Rice Insertional Mutagenesis database (TRIM database, http://trim.sinica.edu.tw/). T1 mutant seeds were surface sterilized in 2.5% NaClO for 18 minutes, washed well with sterile water, placed on MS agar medium (Murashige and Skoog Basal Medium, Sigma), and incubated at 28° C. with continuous light for 15˜20 days. Wild type rice was grown under the same conditions. Plants were transplanted to pot soil and grown in a net-house during the growing season.

GA2ox6 mRNA = assay: RT-PCR of GA2ox6 mRNA in leaves and roots of seedlings; type: in vivo, Oryza sativa; details: GA3 treatment, wild type and GA2ox6ACT mutant seedlings at 18 DAI
Procedure: (§1) Total RNA was purified from rice tissues using a Trizol reagent (Invitrogen). Total RNA (15 μg aliquots) was treated with 1 unit of RNase-free DNase I (Promega) in a 20 μL volume and incubated at 37° C. for 30 min. The RNA sample was then incubated at 65° C. for 10 min and placed on ice. cDNA synthesis was performed in a 20 μL mixture containing 1× reverse transcription reaction buffer (Invitrogen), 4.5 μg of purified RNA, 400 ng oligo (dT)16 primer, 5 mM DTT, 0.5 mM each dNTP, 40 units RNasin (Promega), and 200 units Superscript® III reverse transcriptase (Invitrogen). The reaction was carried out at room temperature (25° C.) for 10 min, transferred to 50° C. for 1 h, and terminated by heating at 72° C. for 15 min. The sample, which served as a cDNA stock for PCR analysis, was then stored at −70° C.
RT-PCR analysis was carried out in a 15 μl, solution containing 0.9 μL cDNA, 1×PCR buffer (Promega), 1.5 mM MgCl2, 0.2 mM each dNTP, 0.3 μmole each primer, 3% DMSO, and 0.6 units of Taq DNA polymerase (Promega). For GA2ox2, GA2ox7, and GA2ox8 that had very low mRNA abundance, RT-PCR analysis was carried out using KOD Hot Start DNA Polymerase (Novagen). Each 15 μL of reaction solution contained 0.9 μL cDNA, 1×PCR buffer (Novagen), 1.0 mM MgSO4, 0.2 mM each dNTP, 0.3 μmole each primer, 3% DMSO, and 1 unit of KOD Hot Start DNA Polymerase (Novagen). […]

[2] = tested on: Ubi::GA2ox6 transgenic rice and wild type; assay: GA3 treatment of wild type and Ubi::GA2ox6 transgenic rice grown in pot soil (plant height); type: in vivo, Oryza sativa; details: 10 μM GA3 at a 12-day interval for 5 weeks
TB1 mRNA = assay: RT-PCR of TB1 mRNA in embryos containing tiller buds; type: in vivo, Oryza sativa; details: 12 DAI
Procedure: (§2) To determine whether GA deficiency induced expression of OSH1 and TB1 that in turn promotes tillering and root development, GA2ox5Δ335-341ACT, GA2ox6ACT and wild type seedlings were grown in media with or without 5 μM GA3 after germination. Rice embryos containing tiller buds were collected at 12 DAI. […] It is not clear why the accumulation of OSH1 and TB1 mRNAs in the wild type was enhanced by GA3 (FIG. 14A), nevertheless, its stem became slenderer and adventitious root growth was inhibited similar as mutants (FIG. 14B).
as §1, with “−70° C. […]” for “−70° C.”

OSH1 mRNA = assay: RT-PCR of OSH1 mRNA in embryos containing tiller buds; type: in vivo, Oryza sativa; details: 12 DAI
Procedure: as §2
as §1, with “−70° C. […]” for “−70° C.”

[3] = tested on: wild type and GA2ox6ACT plants; assay: Tiller number of 1-month-old plants in pot soil sprayed with GA3; type: in vivo, Oryza sativa; details: 10 μM GA3 spray once every 7 days, 3 sprays, GA2ox6ACT mutant and wild type
Description: (§3) Additionally, the inhibition of tillering by GA3 was independent of rice growth stage (see FIG. 15B). […] Both GA-treated GA2ox6ACT mutant and wild-type plants produced 2-3 times fewer tillers than mutant and wild-type plants without GA treatment (FIG. 15B).

[4] = tested on: GA2ox6ACT mutant seedlings; assay: Tiller and adventitious root development of seedlings grown in media with or without GA3; type: in vivo, Oryza sativa; details: 5 μM GA3 in medium
Description: as §3

[5] = In vitro enzyme activity of recombinant GST fusion GA2ox5 and GA2ox6 expressed in E. coli; type: biochemical, Oryza sativa; details: partially purified glutathione S-transferase fusion protein
Description: GA53, a precursor of GA1, could be converted to GA97 in vitro by the Arabidopsis class C20 GA2ox through 2β-hydroxylation (Schomburg et al., 2003). The in vitro activity of rice GA2ox5 and GA2ox6 were also investigated by overexpression as fusion proteins with glutathione S-transferase in E. coli. Fusion proteins were partially purified and their enzyme activity analyzed.
Full length cDNAs of GA2ox5 and GA2ox6 in the pGEM®-T Easy cloning vector were digested with BamHI and subcloned into the same site in pGEX-5X expression vector (Amersham Biosciences). The resulting expression vectors were used to transform E. coli strain BL21-CodonPlus® (DE3) RIPL (Stratagen). A volume of 5 mL transformants pre-cultured overnight in Luria-Bertani broth (LB broth, DIFCO) was transferred to 500 mL of LB broth with 100 mgL^−1 ampicillin and incubated at 37° C. until cell density reached an OD600 around 0.6˜0.8. Isopropyl-β-D-thiogalactopyranoside (IPTG) was added to the bacteria culture to a final concentration of 0.3 mM and incubated at 28° C. for another 3 hours. Bacteria were pelleted by centrifuge and harvested, resuspended in BugBuster® Protein Extraction Reagent (Novagen) at room temperature for 10˜20 minutes, and centrifuged at […] for 30 min. The supernatant protein extracts were partially purified through GST-Bind resin (Novagen), and the purified protein extracts were stored at −80° C. […]

[6] = 5 μM GA3, GA2ox5Δ335-341ACT and GA2ox6ACT mutants

Row | Molecule | Root lengths of wild type and GA2ox6ACT mutant seedlings ([1]; 5 μM GA3, 18 DAI) | Height of dwarf GA2ox6ACT mutant seedlings, recovery relative to the wild type ([1]; 5 μM GA3, GA2ox6ACT mutant, 18-day-old seedlings) | Plant height of 18-day-old wild-type seedlings ([1]; 5 μM GA3, wild type, 18 DAI) | Germination of GA2ox6ACT seeds ([1]; 5 μM GA3 in MS agar medium) | GA2ox6 mRNA accumulation in leaves and roots (GA2ox6 mRNA) | Final height of Ubi::GA2ox6 transgenic plants relative to the wild type [2] | Height of wild type plant ([2]; wild type) | TB1 mRNA level in mutants (TB1 mRNA; [6]) | TB1 mRNA accumulation in the wild type (TB1 mRNA; 5 μM GA3, wild type) | OSH1 mRNA level in mutants (OSH1 mRNA; [6]) | OSH1 mRNA accumulation in the wild type (OSH1 mRNA; 5 μM GA3, wild type) | Tillers produced compared to plants without GA treatment [3] | Root system compared to the mutant without GA treatment ([4]; GA2ox6ACT mutant) | Time at which the first tiller developed ([4]; GA2ox6ACT mutant (9 DAI without GA treatment)) [DAI] | Conversion of GA53 to GA97 (2β-hydroxylation) [5]
1 | C=C1C[C@]23C[C@@]1(O)CC[C@H]2[C@@]12C=C[C@H](O)[C@@](C)(C(=O)O1)[C@H]2[C@@H]3C(=O)O [GA3] | effectively enhanced | up to 84 % of the wild type | only slightly enhanced | promoted germination | unaffected | 63 % of the WT | not altered | significantly reduced | enhanced | significantly reduced | enhanced | 2-3 times fewer | significantly reduced | 16 | 
2 | B1 |  |  |  |  |  |  |  |  |  |  |  |  |  |  | could convert GA53 to GA97
3 | B2 |  |  |  |  |  |  |  |  |  |  |  |  |  |  | could convert GA53 to GA97
